Like-named read-outs stand apart in the source and are kept apart here.
Assays:
[1] = assay type: binding; settings: hydroxyapatite nanoparticles in PBS, single stain, FIG. 1
Experimental: Samples were analyzed using the Apogee A50 Nanoscale Flow Cytometer.
An isotype negative control was prepared for each Alendronate compound. […] (AL-Cy5) was Notdronate-Cy5 (NT-Cy5).

[2] = single stain

Row | Substance | probe-positive events (AL-positive / NT-positive background) [1] | probe-positive events, probe versus its isotype negative control ([2]; MGUS patient plasma, FIG. 4) | probe-positive events, probe versus its isotype negative control ([2]; Multiple Myeloma patient plasma, FIG. 8) | probe-positive events ([2]; healthy volunteer plasma, FIG. 2) | probe-positive events, probe versus its isotype negative control ([2]; plasma of another MGUS patient, FIG. 6)
1 | FITC alendronate [AL-FITC] | significantly higher AL-positive events | – | – | – | –
2 | fluorescein-4-butanol [NT-FITC] | minimal | higher count of events | higher count of events | significantly higher | higher count of events
3 | Sulfo-Cy5 alendronate [AL-Cy5] | significantly higher AL-positive events | – | – | – | –
